Assay results as given in US5250283A, “Organic contrast agent analog and method of making same” (priority 1992, dated 1993).
Structures can show the parent of a compound that is named as a salt.

Assay: Thin layer chromatography of bile (metabolism) in rats
Format: in vivo
Settings: rat bile, i.v.
Procedure: Lesser concentrations were found in the other tissues. Excretion of the two compounds were found only in bile with no compound detected in urine. In bile, TFA-IOP reached a maximum concentration of […] with the recovery of 40% of the injection dose during a 90 minute time period (see FIG. 6).

**Q.** Which “metabolism, TLC of bile” value does the source give for `CCC(Cc1c(I)cc(I)c(NC(=O)C(F)(F)F)c1I)C(=O)O` (centres unmarked) [TFA-IOP, N-trifluoroacetyl-iopanoic acid] here?
**A.** a vast majority of the injected TFA-IOP was metabolized to a single metabolite

**Q.** And the “nonmetabolized compound in bile” value (TLC)?
**A.** No nonmetabolized compound was found
